Square brackets hold non-standard residues; d marks the D form. Peptide text beside a SMILES is read from it. * marks the point of attachment. Tic = O=C(O)[C@@H]1Cc2ccccc2CN1; dPhg = N[C@@H](C(=O)O)c1ccccc1; Boc = CC(C)(C)OC(=O)*
Experiments:
[1] = Ratio of IC50 towards Plasmin to thrombin
[2] = Ratio of IC50 towards Tissue Plasminogen activator to thrombin
Serine protease 1 = target: T1, Serine protease 1 (Bos taurus, UniProt P00760); experiment: In vitro Enzyme Inhibitory activity measured against Trypsin
T1 sequence (P00760 whole entry): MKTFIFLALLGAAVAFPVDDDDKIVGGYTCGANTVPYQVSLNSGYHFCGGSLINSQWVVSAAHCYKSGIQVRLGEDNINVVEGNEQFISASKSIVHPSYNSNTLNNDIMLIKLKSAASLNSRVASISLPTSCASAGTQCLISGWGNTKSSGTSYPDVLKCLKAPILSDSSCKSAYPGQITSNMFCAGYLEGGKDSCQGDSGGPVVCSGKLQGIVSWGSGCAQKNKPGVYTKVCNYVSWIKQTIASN

[3] = target: Tissue-type plasminogen activator (Homo sapiens, UniProt P00750); experiment: In vitro Enzyme Inhibitory activity against t-PA(Tissue plasminogen activator).
Plasminogen = Plasminogen (Homo sapiens, UniProt P00747); experiment: In vitro Enzyme Inhibitory activity measured against Plasmin
Coagulation factor X = Coagulation factor X (Bos taurus, UniProt P00743); experiment: In vitro Enzyme Inhibitory activity measured against Coagulation factor X
Prothrombin = Prothrombin (Bos taurus, UniProt P00735); experiment: In vitro Enzyme Inhibitory activity measured against Thrombin

Chain of Coagulation factor X (P00743 41-180 limits assumed): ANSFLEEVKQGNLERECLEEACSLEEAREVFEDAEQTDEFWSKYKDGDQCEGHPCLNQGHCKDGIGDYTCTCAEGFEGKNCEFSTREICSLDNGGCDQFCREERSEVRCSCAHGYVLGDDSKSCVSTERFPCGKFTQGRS
Chain of Coagulation factor X (P00743 234-492 limits assumed): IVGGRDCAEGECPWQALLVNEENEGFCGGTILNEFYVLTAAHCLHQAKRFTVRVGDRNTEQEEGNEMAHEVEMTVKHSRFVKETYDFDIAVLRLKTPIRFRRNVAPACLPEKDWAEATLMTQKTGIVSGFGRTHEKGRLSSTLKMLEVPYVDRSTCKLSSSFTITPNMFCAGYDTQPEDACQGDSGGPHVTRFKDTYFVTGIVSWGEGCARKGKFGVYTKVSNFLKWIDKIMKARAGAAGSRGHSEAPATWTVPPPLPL
Chain of Plasminogen (P00747 97-580 limits assumed): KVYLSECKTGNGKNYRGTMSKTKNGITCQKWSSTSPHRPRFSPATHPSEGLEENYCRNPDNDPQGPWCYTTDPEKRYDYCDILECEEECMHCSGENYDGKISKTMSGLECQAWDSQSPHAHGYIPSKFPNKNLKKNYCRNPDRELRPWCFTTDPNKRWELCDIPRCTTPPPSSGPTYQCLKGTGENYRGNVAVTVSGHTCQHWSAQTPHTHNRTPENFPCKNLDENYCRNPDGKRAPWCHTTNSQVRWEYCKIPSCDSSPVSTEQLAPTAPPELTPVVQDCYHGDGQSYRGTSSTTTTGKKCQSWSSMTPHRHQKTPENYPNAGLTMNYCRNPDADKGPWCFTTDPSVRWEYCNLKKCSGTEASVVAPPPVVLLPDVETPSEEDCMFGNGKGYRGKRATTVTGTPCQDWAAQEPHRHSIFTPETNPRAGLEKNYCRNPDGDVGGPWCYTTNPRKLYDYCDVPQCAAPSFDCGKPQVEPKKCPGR
Chain of Plasminogen (P00747 581-810 limits assumed): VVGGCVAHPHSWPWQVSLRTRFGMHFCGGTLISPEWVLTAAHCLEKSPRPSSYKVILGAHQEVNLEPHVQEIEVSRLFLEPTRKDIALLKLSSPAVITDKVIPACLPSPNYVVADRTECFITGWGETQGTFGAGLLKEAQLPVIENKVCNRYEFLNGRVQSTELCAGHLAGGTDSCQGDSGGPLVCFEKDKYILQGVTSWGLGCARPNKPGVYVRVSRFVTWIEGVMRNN
Chain of Tissue-type plasminogen activator (P00750 whole entry): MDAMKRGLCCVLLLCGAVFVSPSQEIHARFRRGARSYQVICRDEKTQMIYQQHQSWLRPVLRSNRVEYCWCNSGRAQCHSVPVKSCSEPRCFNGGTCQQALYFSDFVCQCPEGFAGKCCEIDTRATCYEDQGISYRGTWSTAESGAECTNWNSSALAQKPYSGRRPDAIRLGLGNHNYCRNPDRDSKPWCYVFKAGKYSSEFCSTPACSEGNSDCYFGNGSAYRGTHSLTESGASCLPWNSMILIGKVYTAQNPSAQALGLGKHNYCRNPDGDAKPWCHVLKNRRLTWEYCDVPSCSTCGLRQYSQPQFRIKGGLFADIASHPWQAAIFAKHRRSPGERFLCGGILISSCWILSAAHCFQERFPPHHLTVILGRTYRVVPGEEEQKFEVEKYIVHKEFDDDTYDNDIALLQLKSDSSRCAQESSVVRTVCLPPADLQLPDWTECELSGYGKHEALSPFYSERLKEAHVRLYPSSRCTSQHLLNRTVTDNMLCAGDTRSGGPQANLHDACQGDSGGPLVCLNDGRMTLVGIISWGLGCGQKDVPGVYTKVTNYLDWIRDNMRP

SMILES | Selectivity [1] | Selectivity [2] | IC50 (Serine protease 1) | IC50 [3] | IC50 (Plasminogen) | IC50 (Coagulation factor X) | IC50 (Prothrombin)
CC(C)(C)OC(=O)NC(Cc1ccccc1)C(=O)N1CSCC1C(=O)N[C@H](C=O)CCCN=C(N)N (stereo in doubt) [listing 1 of 3 here] | 4 | 260 |  |  |  |  | 
CC(C)(C)OC(=O)NC(Cc1ccccc1)C(=O)N1C(C(=O)N[C@H](C=O)CCCN=C(N)N)CCC1(C)C (stereo in doubt) [listing 1 of 3 here] |  |  | 0.17 µM | > 30000 µM | 11 µM | 18 µM | 
CC(C)(C)OC(=O)N[C@@H](C(=O)N1CCC[C@H]1C(=O)N[C@H](C=O)CCCN=C(N)N)c1ccccc1 (Boc-[dPhg]-Pro-Arg-aldehyde) | 6 | 540 | 0.0098 µM | 8.7 µM |  | 0.26 µM | 0.016 µM
N=C(N)NCCC[C@@H](C=O)NC(=O)[C@@H]1CCCN1C(=O)[C@@H]1NCC[C@@H]2CCCC[C@@H]21 | 40 | 1800 | 0.053 µM | 34 µM | 0.71 µM | 0.55 µM | 0.019 µM
CC(C)(C)OC(=O)NC(Cc1ccccc1)C(=O)N1CSCC1C(=O)N[C@H](C=O)CCCN=C(N)N (stereo in doubt) [listing 2 of 3 here] |  |  | 0.0088 µM | 23 µM | 0.34 µM | 0.86 µM | 
CC(C)(C)OC(=O)N[C@@H](C(=O)N1CC[C@H]1C(=O)N[C@H](C=O)CCCN=C(N)N)c1ccccc1 |  |  | 0.011 µM | 6.6 µM | 0.15 µM | 0.27 µM | 
CC(C)(C)OC(=O)NC(Cc1ccccc1)C(=O)N1C(C(=O)N[C@H](C=O)CCCN=C(N)N)CCC1(C)C (stereo in doubt) [listing 2 of 3 here] | 38 | > 50000 |  |  |  |  | 
CC[C@](NC(=O)C(F)(F)F)(C(=O)N1CC[C@H]1C(=O)N[C@H](C=O)CCCN=C(N)N)c1ccccc1 |  |  | 0.0052 µM |  | 4.3 µM | 32 µM | 
CN[C@H](Cc1ccccc1)C(=O)N1CCC[C@H]1C(=O)N[C@H](C=O)CCCN=C(N)N |  |  | 0.013 µM | 21 µM | 0.67 µM | 7.6 µM | 0.0089 µM
CN[C@H](Cc1ccccc1)C(=O)N1CCC[C@H]1C(=O)N[C@H](C=O)CCCNC(=N)N | 80 | 2400 |  |  |  |  | 
CC(C)(C)OC(=O)N[C@@H](Cc1ccccc1)C(=O)N1CCCC[C@H]1C(=O)N[C@H](C=O)CCCNC(=N)N |  |  | 0.72 µM | 48 µM | 8.1 µM | 32 µM | 1.7 µM
N=C(N)NCCC[C@@H](C=O)NC(=O)[C@@H]1CCCN1C(=O)[C@@H]1Cc2ccccc2CN1 (H-[Tic]-Pro-Arg-aldehyde) |  |  | 0.023 µM | 430 µM |  | 0.64 µM | 0.019 µM
CN[C@@H](Cc1ccccc1)C(=O)N1CCC[C@H]1C(=O)N[C@](C)(C=O)CCCN=C(N)N | 850 | > 30000 | 240 µM | > 30000 µM | 850 µM | 1800 µM | 1 µM
C[C@](NC(=O)C(F)(F)F)(C(=O)N1CC[C@H]1C(=O)N[C@H](C=O)CCCN=C(N)N)c1ccccc1 | 510 | 11000 | 0.0096 µM | 130 µM | 6.1 µM | 98 µM | 0.012 µM
C[C@](NC(=O)C(F)(F)F)(C(=O)N1CCC[C@H]1C(=O)N[C@H](C=O)CCCN=C(N)N)c1ccccc1 | 700 | > 50000 | 0.18 µM | > 30000 µM | 45 µM | 190 µM | 0.064 µM
CC(=O)N[C@@](C)(C(=O)N1CC[C@H]1C(=O)N[C@H](C=O)CCCN=C(N)N)c1ccccc1 | 400 | 13000 |  |  |  |  | 
CC(C)(C)OC(=O)N[C@@H](Cc1ccccc1)C(=O)N1CCCC[C@H]1C(=O)N[C@H](C=O)CCCN=C(N)N | 5 | 30 |  |  |  |  | 
N=C(N)NCCC[C@@H](C=O)NC(=O)[C@@H]1CCCN1C(=O)[C@@H]1C[C@@H]2CCCC[C@@H]2CN1 | 5 | 650 | 0.0091 µM | 30 µM | 0.23 µM | 3.3 µM | 0.046 µM
CC(C)(C)OC(=O)N[C@@](C)(C(=O)N1CC[C@H]1C(=O)N[C@H](C=O)CCCN=C(N)N)c1ccccc1 | 180 | 5500 | 0.015 µM | 120 µM | 3.9 µM | 0.89 µM | 0.022 µM
CC(C)(C)OC(=O)N[C@H](Cc1ccccc1)C(=O)N1CCC[C@H]1C(=O)N[C@H](C=O)CCCN=C(N)N | 4 | 20 | 0.014 µM | 0.95 µM |  | 1.6 µM | 0.045 µM
CC(C)(C)OC(=O)NC(Cc1ccccc1)C(=O)N1CC[C@H]1C(=O)N[C@@H](CCCN=C(N)N)C(=O)O (stereo in doubt) | 20 | 50 |  |  |  |  | 0.018 µM
CC(C)(C)OC(=O)N[C@H](Cc1ccccc1)C(=O)N1CC[C@H]1C(=O)N[C@H](C=O)CCCNC(=N)N |  |  | 0.0097 µM | 0.9 µM | 0.36 µM | 1.3 µM | 
CC(=O)N[C@@](C)(C(=O)N1CC[C@H]1C(=O)N[C@H](C=O)CCCNC(=N)N)c1ccccc1 |  |  | 0.011 µM | 250 µM | 7.5 µM | 86 µM | 0.019 µM
CC(C)(C)OC(=O)NC(Cc1ccccc1)C(=O)N1C(C(=O)N[C@H](C=O)CCCN=C(N)N)CCC1(C)C (stereo in doubt) [listing 3 of 3 here] |  |  |  |  |  |  | 0.29 µM
CC(C)(C)OC(=O)NC(Cc1ccccc1)C(=O)N1CSCC1C(=O)N[C@H](C=O)CCCN=C(N)N (stereo in doubt) [listing 3 of 3 here] |  |  |  |  |  |  | 0.088 µM

From ChEMBL document CHEMBL1128179, “Structure-activity study of tripeptide thrombin inhibitors using alpha-alkyl amino acids and other conformationally constrained amino acid substitutions” (J Med Chem, 1995)
